Data set [1] has as its system p-ERK in GP2D cells. Nature of the data set: Assay of p-ERK inhibition in GP2D cells (HTRF). It counts as cell-based. The note with it: 1 hour incubation. As for the experimental part: The cell plate was inoculated in a carbon dioxide incubator at 37° C. overnight; • 2) 2 μL of the compound was weighed and added to 78 μL of the cell medium. After the mixture was mixed thoroughly, 20 μL of the solution of compound was weighed and added to the corresponding well of the cell plate. The cell plate was placed back to the carbon dioxide incubator and incubated for another 1 hour; • 3) After completion of the incubation, the cell supernatant was discarded. 50 μL of 1× cell lysate was added to each well. The mixture was incubated with shaking at room temperature for 30 minutes; • 4) Phospho-ERK1/2 Eu Cryptate antibody and Phospho-ERK1/2 d2 antibody were diluted 20-fold with detection buffer; • 5) 16 μL of cell lysate supernatant was weighed and added into each well of a new 384 white microwell plate, and then 2 μL of the diluted solution of Phospho-ERK1/2 Eu Cryptate antibody and 2 μL of the diluted solution of Phospho-ERK1/2 d2 antibody dilution were added. The mixture was incubated at room temperature for at least 4 hours; • 6) After completion of the incubation, HTRF was read with multi-label analyzer: excitation: 320 nm, emission: 615 nm, 665 nm; • 7). IC50 of the compounds to be assayed was calculated.
Background: Time-resolved FRET reads energy transfer from a long-lived donor to a nearby acceptor.

Data set [2] has as its target KRAS^G12D (Homo sapiens (Human), UniProt P01116, G12D). Nature of the data set: Assay of activity of inhibiting KRAS^G12D (TR-FRET, SOS/GTP nucleotide exchange). It counts as biochemical. The method, then:
20 mL of 1000 mM HEPES, 20 mL of 500 mM EDTA, 10 mL of 5 M sodium chloride, 0.1 mL of 100% Tween 20, and 949.9 mL of water were weighed and formulated to 1 L of solution. The solution was sterilized by filtration and stored at 4° C.
20 mL of 1000 mM HEPES, 10 mL of 1000 mM magnesium chloride, 30 mL of 5 M sodium chloride, 0.05 mL of 100% Tween 20, and 939.95 mL of water were weighed and formulated to 1 L of solution. The solution was sterilized by filtration and stored at 4° C.
9.5 μL of 95 μM KRAS^G12D protein and 440.5 μL of KRAS nucleotide exchange buffer were weighed and mixed. The mixture was incubated at room temperature for 1 hour, and then formulated to […] of solution together with 8.4 μL of 17.9 μM Tb-SA, 1.8 μL of 5 mM Bodipy GDP and 9539.8 μL of KRAS assay buffer. After mixing, the solution was left to stand at room temperature for 6 hours, and stored at −80° C. • b. Assay reagents:
73.3 μL of KRAS/Bodipy GDP/Tb-SA mixture and 2126.7 μL of KRAS assay buffer were weighed and formulated to 2200 μL of solution.
1.59 μL of 166 μM SOS protein, 198 μL of 100 mM GTP and 2000.41 μL of KRAS assay buffer were weighed and formulated to 2200 μL of solution.
• 1) The concentration of a stock solution of the control compound was 1 mM, and the concentration of a stock solution of compounds to be assayed was 10 mM. […]

The subject of data set [3] is KRAS^G12D GP2D. Description: Anti-cell proliferation effect in tumor cell line GP2D (CellTiter-Glo 3D). It counts as cell-based. Conditions: 120 hours. The method, then:
(§1) In this assay, the effect of the compounds on inhibiting cell proliferation was studied by detecting the effect of the compounds on the cell activity in vitro in the tumor cell lines AsPC-1 and GP2D.
(§2) The tumor cell lines were cultured in a 37° C., 5% CO2 incubator according to the culture conditions indicated in the culture method. Cells were passaged regularly, and cells in logarithmic growth phase were used for plating.
(§3) Cells were stained with trypan blue and viable cells were counted.
(§4) The cell concentration was adjusted to an appropriate concentration.
(§5) To each well of a ULA culture plate was added 135 μL of cell suspension. To the blank control well was added the same volume of culture medium without cells.
(§6) After plating, the ULA culture plate was immediately centrifuged at room temperature at 1000 rpm for 10 minutes. Note: After completion of the centrifugation, subsequent operations must be processed carefully to avoid unnecessary shocks.
(§7) The culture plate was incubated in a 37° C., 5% CO2, 100% relative humidity incubator overnight.
(§8) 10× compound working solution (10× working solution in DMSO) was formulated, and then to the ULA culture plate was add 15 μL of 10× compound working solution, and to the vehicle control and blank control was added 15 μL of DMSO-cell culture medium mixture, respectively. […]
(§9) The luminescent signal was detected on a 2104 EnVision plate reader. […]

Data set [4] relates to KRAS^G12D AsPC-1. Nature of the data set: Anti-cell proliferation effect in tumor cell line AsPC-1 (CellTiter-Glo 3D). It counts as cell-based. The note with it: Homo sapiens, ASPC1, AsPC-1, 120 hours. The method, then: as §1, §2, §3, §4, §5, §6, §7, §8, §9
Background: In ATP-based viability assays light output follows the ATP content of the culture.

A short description of data set [5]: Pharmacokinetic study of oral and intravenously injected compounds in CD-1 mouse. It counts as in vivo. As for the experimental part: To assay the pharmacokinetics of oral and intravenously injected compounds in CD-1 mouse. The assay compound was mixed with 5% DMSO+95% (10% HP-β-CD) aqueous solution. The mixture was vortexed and sonicated to prepare a clear solution of 0.5 mg/mL (intravenous) or a clear solution of 3 mg/mL (oral). The clear solution was filtered by a microporous membrane for use. […] Whole blood was collected for a certain period of time, and prepared to obtain plasma. Drug concentration was analyzed by LC-MS/MS method, and pharmacokinetic parameters were calculated by Phoenix WinNonlin software (Pharsight, USA).

Where [6] appears, read: male, CD-1, plasma, intravenous (IV), about 2 mg/kg.
Where [7] appears, read: male, CD-1, plasma, oral (PO), about 30 mg/kg.

Counter-ions that a name gives are not always drawn.

Chain of KRAS^G12D (P01116-2 other isoform, or with tags, fused parts or gaps G12D): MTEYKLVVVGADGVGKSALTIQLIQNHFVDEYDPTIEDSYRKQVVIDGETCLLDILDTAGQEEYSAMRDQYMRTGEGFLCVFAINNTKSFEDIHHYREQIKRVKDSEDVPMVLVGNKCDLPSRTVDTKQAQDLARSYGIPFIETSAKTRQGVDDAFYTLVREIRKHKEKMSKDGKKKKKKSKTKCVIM

Consider `Cc1cc(N)c(F)c(C2Cc3nc(OC[C@@]45CCCN4C[C@H](F)C5)nc(N4CC5CCC(C4)N5)c3CO2)c1Cl` (stereo partly shown) [Compound 14 hydrochloride], for which the IC50 in data set [1] worked out at 5.2 nM.
`Oc1cc(C2Cc3nc(OC[C@@]45CCCN4C[C@H](F)C5)nc(N4CC5CCC(C4)N5)c3CO2)c2ccccc2c1` (stereo partly shown) [Compound 8 hydrochloride]: the results for the IC50 in data set [2] and in data set [1] were 78.3 nM and 78 nM, respectively.
`C#Cc1c(C)cc(N)c(F)c1C1Cc2nc(OC[C@@]34CCCN3C[C@H](F)C4)nc(N3CC4CCC(C3)N4)c2CO1` (stereo partly shown) [Compound 17]: in data set [1], inhibition was half-maximal at 27.1 nM (IC50).
`Cc1cc(N)c(F)c(C2Cc3nc(OC[C@@]45CCCN4C[C@H](F)C5)nc(N4CC5CCC(C4)N5)c3CO2)c1C1CC1` (stereo partly shown) [Compound 27 hydrochloride] had an IC50 in data set [1] of 118 nM.
Regarding `Cc1cc(N)c(F)c(C2Cc3nc(OC[C@@]45CCCN4C[C@H](F)C5)nc(N4CC5CC(C4)N5)c3CO2)c1C(F)(F)F` (stereo partly shown) [Compound 2 hydrochloride], the figures for the IC50 in data set [3] and in data set [4] were 332 nM and 1860 nM, respectively.
`Cc1cc(N)c(F)c(C2Cc3nc(OC[C@@]45CCCN4C[C@H](F)C5)nc(N4CC5CCC(C4)N5)c3CO2)c1C#N` (stereo partly shown) [Compound 18] had an IC50 in data set [1] of 66.4 nM.
Still for that read-out and setting: the figure for `C=Cc1c(C)cc(N)c(F)c1C1Cc2nc(OC[C@@]34CCCN3C[C@H](F)C4)nc(N3CC4CCC(C3)N4)c2CO1` (stereo partly shown) [Compound 19 hydrochloride] is 17.5 nM.
`Nc1ccc(C(F)(F)F)c([C@H]2Cc3nc(OC[C@@]45CCCN4C[C@H](F)C5)nc(N4CC5CCC(C4)N5)c3CO2)c1F` (single isomer, unassigned) [Compound 20B]: in data set [5] (setting [6]), the AUC(0-t) was found to be 0.371 µM·h, the C0 came out at 449 nM, the Vd is 97.2 L/kg and the clearance was 138 mL/min/kg. The compound further gave a half-life in data set [5] (setting [6]) of 672 min. In data set [5] (setting [7]), the AUC(0-inf) was determined as 4.71 µM·h, the Cmax is 2100 nM and the half-life was 864 min. In addition, the F in data set [5] (oral (PO), about 30 mg/kg, oral bioavailability) is listed as 85%. The same compound returned an IC50 in data set [1] of 1.3 nM.
Regarding `Cc1cc(N)c(F)c(C2Cc3nc(OC[C@@]45CCCN4C[C@H](F)C5)nc(N4CC5C=CC(C4)N5)c3CO2)c1C(F)(F)F` (stereo partly shown) [Compound 7 hydrochloride], the IC50 was found to be 0.1 nM in data set [2] and 1.1 nM in data set [1].
As to `Cc1cc(N)c(F)c(C2Cc3nc(OC[C@@]45CCCN4C[C@H](F)C5)nc(N4CC5CCC(C4)N5)c3CO2)c1I` (stereo partly shown) [Compound 16 hydrochloride], the IC50 in data set [1] was 2.9 nM. In other words, the single-digit nanomolar range.
Still for that read-out and setting: the figure for `Cc1cc(N)c(F)c(C2Cc3nc(OC[C@@]45CCCN4C[C@H](F)C5)nc(N4CC5CCC(C4)N5)c3CO2)c1Br` (stereo partly shown) [Compound 15 hydrochloride] is 8.4 nM; for `Cc1cc(N)c(F)c(C2Cc3nc(OC[C@@]45CCCN4C[C@H](F)C5)nc(N4CC5CCC(C4)N5)c3CO2)c1C` (stereo partly shown) [Compound 25 hydrochloride] it is 96.4 nM.
Still for that read-out and setting: as for `Cc1cc(N)nc(C2Cc3nc(OC[C@@]45CCCN4C[C@H](F)C5)nc(N4CC5CCC(C4)N5)c3CO2)c1C(F)(F)F` (stereo partly shown) [Compound 23 formate], the figure is 23.4 nM.
Same read-out and setting: as for `Nc1cc(Cl)c(Br)c(C2Cc3nc(OC[C@@]45CCCN4C[C@H](F)C5)nc(N4CC5CCC(C4)N5)c3CO2)c1F` (stereo partly shown) [Compound 21 hydrochloride], the figure is 2.6 nM.
Regarding `Cc1cc(N)c(F)c(C2Cc3nc(OC[C@@]45CCCN4C[C@H](F)C5)nc(N4CC5CCC(C4)N5)c3CO2)c1C(F)(F)C(F)(F)F` (stereo partly shown) [Compound 12 formate], in data set [1], inhibition was half-maximal at 20.9 nM (IC50).
Take `Nc1cc(F)c(C(F)(F)F)c(C2Cc3nc(OC[C@@]45CCCN4C[C@H](F)C5)nc(N4CC5CCC(C4)N5)c3CO2)c1F` (stereo partly shown) [Compound 22 hydrochloride]: it took 2.7 nM to reach half-maximal inhibition in data set [1] (IC50).

As a reminder, the IC50 is the concentration at which inhibition is half-maximal. Low values mean greater potency in that assay, high ones weaker potency in that assay. What is called AUC(0-t) is exposure summed from dosing to a finite time, without extrapolation to infinity. The low end stands for less exposure, the high end for more exposure. As a reminder, the half-life is how long it takes for the measured level to halve. A higher half-life goes with slow decline. As usually defined, the AUC(0-inf) is total exposure, with the tail of the curve extrapolated. A word on the Cmax: it is the highest concentration seen after dosing.

The record behind these values is patent US20240327433A1, “PYRIMIDOPYRAN COMPOUND” (Medshine Discovery Inc., priority 2021, published 2024).
